Source: patent publication US20140073700A1, “[…] ACID DERIVATIVES AND METHODS OF USE THEREOF” (AbbVie Inc., priority 2012, published 2014)
pIC50: −log10 of the molar value.

System: IFNγ-Induced NO Production in RAW 264.7 cells
Assay: Nitric Oxide Suppression Assay (suppression of IFNγ-induced NO production)
Assay type: cell-based
Conditions: RAW264.7; RAW 264.7 mouse macrophage cells, 20 ng/mL interferon gamma, Griess detection; single curve fit to mean data of n=2-3
Protocol: RAW 264.7, a mouse macrophage cell line, was obtained from American Type Culture Collection (Manassas Va.) and maintained in the log phase of growth in Dulbecco's Modified Eagle's Medium (DMEM), 10% heat inactivated fetal calf serum and 100 units/mL antibiotic-antimycotic (AA). Cells were cultured and maintained in a humidified incubator at 37° C. under 5% CO2 and 95% air. Cells were sub-cultured every 3 days by scraping and were not used beyond passage 20. All cell culture supplies were obtained from Life Technologies (Grand Island, N.Y.).
RAW 264.7 cells were plated 1 day in advance of experiment at a concentration of 80,000 cells/well onto CellBIND® 96 well plates (Corning, N.Y.) in a total volume of 100 μL. The next day, pre-treat cells with compounds (from 3 μM to 0.3 nM serially diluted in a 10 point curve) from a 10× stock by adding 10 μL per well in complete DMEM media containing 10% fetal calf serum. The plates were centrifuged for 3 minutes at 400×g at room temperature followed by 2 hour incubation at 37° C. The cells were then incubated overnight at 37° C. with 10 μL of the insult, interferon gamma (R&D Systems, Minneapolis, Minn.), from a 10× stock for a final concentration of 20 ng/mL. The plates were centrifuged for 3 minutes at 400×g at room temperature followed by 18 hour incubation at 37° C. The following day, transfer 50 μL cell culture supernatant from each well into a clear bottom 96 well plate and follow the instructions from Promega's Griess Detection Kit #G2930 (Madison, Wis.) which involves the addition of 50 μL of the provided sulfanilamide solution for a 5-10 minute incubation at room temperature. Next add 50 μL of the provided N-1-napthylethylenediamine dihydrochloride (NED) solution for a 5-10 minute incubation at room temperature and protected from light. If any air bubbles were introduced into the well, the plates need to be centrifuged for 5 minutes at 400×g at room temperature to avoid interference with absorbance readings. The plates were read for absorbance within 30 minutes with a filter between 520 nm and 550 nm.
For the ability of compounds to suppress the increase in nitric oxide release, the percent maximal intensity of nitric oxide detected in each well was normalized to that induced by the peak value for 20 ng/mL of interferon gamma alone and plotted against the compound concentration to calculate IC50 values and to control for plate-to-plate variability. Concentration-response data were analyzed using GraphPad Prism (San Diego, Calif.); the IC50 values were derived from a single curve fit to the mean data of n=2-3, in duplicates.
All compounds were dissolved in dimethyl sulfoxide at 10 mM stock solutions and tested at a concentration that the dimethyl sulfoxide levels never exceeded 1%.

SMILES | pIC50
COC(=O)[C@@]1(C)CC[C@]2(C)CC[C@]3(C)[C@H](C(=O)C=C4[C@@]5(C)C=C(C#N)C(=O)C(C)(C)[C@@H]5CC[C@]43C)[C@@H]2C1 [Example 2, (2S,4aS,6aR,6bS,8aR,12aS,14aR,14bS)-methyl 11-cyano-2,4a,6a,6b,9,9,12a-heptamethyl-10,14-dioxo-1,2,3,4,4a,5,6,6a,6b,7,8,8a,9,10,12a,14,14a,14b-octadecahydropicene-2-carboxylate] | 6.70
CC1(C)C(=O)C(C#N)=C[C@]2(C)C3=CC(=O)[C@]4(O)[C@@H]5C[C@@](C)(C(=O)NCCO)CC[C@]5(C)CC[C@@]4(C)[C@]3(C)CC[C@@H]12 [Example 4, (2S,4aS,6aS,6bR,8aR,12aS,14aS,14bR)-11-cyano-14a-hydroxy-N-(2-hydroxyethyl)-2,4a,6a,6b,9,9,12a-heptamethyl-10,14-dioxo-1,2,3,4,4a,5,6,6a,6b,7,8,8a,9,10,12a,14,14a,14b-octadecahydropicene-2-carboxamide] | 7.26
CCCN(C)C(=O)[C@@]1(C)CC[C@]2(C)CC[C@@]3(C)[C@]4(C)CC[C@H]5C(C)(C)C(=O)C(C#N)=C[C@]5(C)C4=CC(=O)[C@]3(O)[C@@H]2C1 [Example 6, (2S,4aS,6aS,6bR,8aR,12aS,14aS,14bR)-11-cyano-14a-hydroxy-N,2,4a,6a,6b,9,9,12a-octamethyl-10,14-dioxo-N-propyl-1,2,3,4,4a,5,6,6a,6b,7,8,8a,9,10,12a,14,14a,14b-octadecahydropicene-2-carboxamide] | 7.45
CC1(C)C(=O)C(C#N)=C[C@]2(C)C3=CC(=O)[C@]4(O)[C@@H]5C[C@@](C)(C(=O)NCc6cccnn6)CC[C@]5(C)CC[C@@]4(C)[C@]3(C)CC[C@@H]12 [Example 8, (2S,4aS,6aS,6bR,8aR,12aS,14aS,14bR)-11-cyano-14a-hydroxy-2,4a,6a,6b,9,9,12a-heptamethyl-10,14-dioxo-N-(pyridazin-3-ylmethyl)-1,2,3,4,4a,5,6,6a,6b,7,8,8a,9,10,12a,14,14a,14b-octadecahydropicene-2-carboxamide] | 7.55
CC1(C)C(=O)C(C#N)=C[C@]2(C)C3=CC(=O)[C@]4(O)[C@@H]5C[C@@](C)(C(=O)NCC#N)CC[C@]5(C)CC[C@@]4(C)[C@]3(C)CC[C@@H]12 [Example 29, (2S,4aS,6aS,6bR,8aR,12aS,14aS,14bR)-11-cyano-N-(cyanomethyl)-14a-hydroxy-2,4a,6a,6b,9,9,12a-heptamethyl-10,14-dioxo-1,2,3,4,4a,5,6,6a,6b,7,8,8a,9,10,12a,14,14a,14b-octadecahydropicene-2-carboxamide] | 7.77
CC1(C)C(=O)C(C#N)=C[C@]2(C)C3=CC(=O)[C@]4(O)[C@@H]5C[C@@](C)(C(=O)NCc6cnco6)CC[C@]5(C)CC[C@@]4(C)[C@]3(C)CC[C@@H]12 [Example 3, (2S,4aS,6aS,6bR,8aR,12aS,14aS,14bR)-11-cyano-14a-hydroxy-2,4a,6a,6b,9,9,12a-heptamethyl-N-(1,3-oxazol-5-ylmethyl)-10,14-dioxo-1,2,3,4,4a,5,6,6a,6b,7,8,8a,9,10,12a,14,14a,14b-octadecahydropicene-2-carboxamide] | 7.84
C[C@H](NC(=O)[C@@]1(C)CC[C@]2(C)CC[C@@]3(C)[C@]4(C)CC[C@H]5C(C)(C)C(=O)C(C#N)=C[C@]5(C)C4=CC(=O)[C@]3(O)[C@@H]2C1)c1ccccc1 [Example 20, (2S,4aS,6aS,6bR,8aR,12aS,14aS,14bR)-11-cyano-14a-hydroxy-2,4a,6a,6b,9,9,12a-heptamethyl-10,14-dioxo-N-[(1S)-1-phenylethyl]-1,2,3,4,4a,5,6,6a,6b,7,8,8a,9,10,12a,14,14a,14b-octadecahydropicene-2-carboxamide] | 7.41
Cc1ccccc1CNC(=O)[C@@]1(C)CC[C@]2(C)CC[C@@]3(C)[C@]4(C)CC[C@H]5C(C)(C)C(=O)C(C#N)=C[C@]5(C)C4=CC(=O)[C@]3(O)[C@@H]2C1 [Example 11, (2S,4aS,6aS,6bR,8aR,12aS,14aS,14bR)-11-cyano-14a-hydroxy-2,4a,6a,6b,9,9,12a-heptamethyl-N-(2-methylbenzyl)-10,14-dioxo-1,2,3,4,4a,5,6,6a,6b,7,8,8a,9,10,12a,14,14a,14b-octadecahydropicene-2-carboxamide] | 6.85
CC1(C)C(=O)C(C#N)=C[C@]2(C)C3=CC(=O)[C@]4(O)[C@@H]5C[C@@](C)(C(=O)O)CC[C@]5(C)CC[C@@]4(C)[C@]3(C)CC[C@@H]12 [Example 3D, (2S,4aS,6aS,6bR,8aR,12aS,14aS,14bR)-11-cyano-14a-hydroxy-2,4a,6a,6b,9,9,12a-heptamethyl-10,14-dioxo-1,2,3,4,4a,5,6,6a,6b,7,8,8a,9,10,12a,14,14a,14b-octadecahydropicene-2-carboxylic acid] | 6.52
COC(=O)[C@@]1(C)CC[C@]2(C)CC[C@@]3(C)[C@]4(C)CC[C@H]5C(C)(C)C(=O)C(C#N)=C[C@]5(C)C4=CC(=O)[C@]3(O)[C@@H]2C1 [Example 1, (2S,4aS,6aS,6bR,8aR,12aS,14aS,14bR)-methyl 11-cyano-14a-hydroxy-2,4a,6a,6b,9,9,12a-heptamethyl-10,14-dioxo-1,2,3,4,4a,5,6,6a,6b,7,8,8a,9,10,12a,14,14a,14b-octadecahydropicene-2-carboxylate] | 7.79
CC1(C)C(=O)C(C#N)=C[C@]2(C)C3=CC(=O)[C@]4(O)[C@@H]5C[C@@](C)(C(=O)N6CCCC6)CC[C@]5(C)CC[C@@]4(C)[C@]3(C)CC[C@@H]12 [Example 31, (4aR,6aR,6bS,8aS,11S,12aR,12bS,14bS)-12b-hydroxy-4,4,6a,6b,8a,11,14b-heptamethyl-3,13-dioxo-11-(pyrrolidin-1-ylcarbonyl)-3,4,4a,5,6,6a,6b,7,8,8a,9,10,11,12,12a,12b,13,14b-octadecahydropicene-2-carbonitrile] | 7.71
Cn1cc(CNC(=O)[C@@]2(C)CC[C@]3(C)CC[C@@]4(C)[C@]5(C)CC[C@H]6C(C)(C)C(=O)C(C#N)=C[C@]6(C)C5=CC(=O)[C@]4(O)[C@@H]3C2)cn1 [Example 9, (2S,4aS,6aS,6bR,8aR,12aS,14aS,14bR)-11-cyano-14a-hydroxy-2,4a,6a,6b,9,9,12a-heptamethyl-N-[(1-methyl-1H-pyrazol-4-yl)methyl]-10,14-dioxo-1,2,3,4,4a,5,6,6a,6b,7,8,8a,9,10,12a,14,14a,14b-octadecahydropicene-2-carboxamide] | 7.89
COCCNC(=O)[C@@]1(C)CC[C@]2(C)CC[C@]3(C)[C@H](C(=O)C=C4[C@@]5(C)C=C(C#N)C(=O)C(C)(C)[C@@H]5CC[C@]43C)[C@@H]2C1 [Example 34, (2S,4aS,6aR,6bS,8aR,12aS,14aR,14bS)-11-cyano-N-(2-methoxyethyl)-2,4a,6a,6b,9,9,12a-heptamethyl-10,14-dioxo-1,2,3,4,4a,5,6,6a,6b,7,8,8a,9,10,12a,14,14a,14b-octadecahydropicene-2-carboxamide] | 8.52
COC(=O)[C@]12CCC(C)(C)C[C@H]1[C@H]1C(=O)C=C3[C@@]4(C)C=C(C#N)C(=O)C(C)(C)[C@@H]4CC[C@@]3(C)[C@]1(C)CC2 [bardoxolone methyl, reference compound] | 7.54
COCC(COC)NC(=O)[C@@]1(C)CC[C@]2(C)CC[C@]3(C)[C@H](C(=O)C=C4[C@@]5(C)C=C(C#N)C(=O)C(C)(C)[C@@H]5CC[C@]43C)[C@@H]2C1 [Example 37, (2S,4aS,6aR,6bS,8aR,12aS,14aR,14bS)-11-cyano-N-(1,3-dimethoxypropan-2-yl)-2,4a,6a,6b,9,9,12a-heptamethyl-10,14-dioxo-1,2,3,4,4a,5,6,6a,6b,7,8,8a,9,10,12a,14,14a,14b-octadecahydropicene-2-carboxamide] | 7.80
CCC(C)CNC(=O)[C@@]1(C)CC[C@]2(C)CC[C@@]3(C)[C@]4(C)CC[C@H]5C(C)(C)C(=O)C(C#N)=C[C@]5(C)C4=CC(=O)[C@]3(O)[C@@H]2C1 (stereo partly drawn) [Example 33, (2S,4aS,6aS,6bR,8aR,12aS,14aS,14bR)-11-cyano-14a-hydroxy-2,4a,6a,6b,9,9,12a-heptamethyl-N-(2-methylbutyl)-10,14-dioxo-1,2,3,4,4a,5,6,6a,6b,7,8,8a,9,10,12a,14,14a,14b-octadecahydropicene-2-carboxamide] | 7.36
